Laboratory results as given in ChEMBL document CHEMBL2057108 (Bioorg Med Chem Lett, 2012).
Activity calls are given as the source filed them. The calls are words filed in the database; no cut-off is given here.

What was measured:
[1] = species on record: Homo sapiens; experiment: Selectivity ratio of Ki for human 5HT3A receptor to Ki for human 5HT4C receptor
[2] = target: hERG (KCNH2) (Homo sapiens, UniProt Q12809); experiment: Inhibition of human ERG expressed in CHO cells at 3 uM; type: cell-based; details: CHO cells expressing human ERG
Chain of hERG (KCNH2) (Q12809 whole entry): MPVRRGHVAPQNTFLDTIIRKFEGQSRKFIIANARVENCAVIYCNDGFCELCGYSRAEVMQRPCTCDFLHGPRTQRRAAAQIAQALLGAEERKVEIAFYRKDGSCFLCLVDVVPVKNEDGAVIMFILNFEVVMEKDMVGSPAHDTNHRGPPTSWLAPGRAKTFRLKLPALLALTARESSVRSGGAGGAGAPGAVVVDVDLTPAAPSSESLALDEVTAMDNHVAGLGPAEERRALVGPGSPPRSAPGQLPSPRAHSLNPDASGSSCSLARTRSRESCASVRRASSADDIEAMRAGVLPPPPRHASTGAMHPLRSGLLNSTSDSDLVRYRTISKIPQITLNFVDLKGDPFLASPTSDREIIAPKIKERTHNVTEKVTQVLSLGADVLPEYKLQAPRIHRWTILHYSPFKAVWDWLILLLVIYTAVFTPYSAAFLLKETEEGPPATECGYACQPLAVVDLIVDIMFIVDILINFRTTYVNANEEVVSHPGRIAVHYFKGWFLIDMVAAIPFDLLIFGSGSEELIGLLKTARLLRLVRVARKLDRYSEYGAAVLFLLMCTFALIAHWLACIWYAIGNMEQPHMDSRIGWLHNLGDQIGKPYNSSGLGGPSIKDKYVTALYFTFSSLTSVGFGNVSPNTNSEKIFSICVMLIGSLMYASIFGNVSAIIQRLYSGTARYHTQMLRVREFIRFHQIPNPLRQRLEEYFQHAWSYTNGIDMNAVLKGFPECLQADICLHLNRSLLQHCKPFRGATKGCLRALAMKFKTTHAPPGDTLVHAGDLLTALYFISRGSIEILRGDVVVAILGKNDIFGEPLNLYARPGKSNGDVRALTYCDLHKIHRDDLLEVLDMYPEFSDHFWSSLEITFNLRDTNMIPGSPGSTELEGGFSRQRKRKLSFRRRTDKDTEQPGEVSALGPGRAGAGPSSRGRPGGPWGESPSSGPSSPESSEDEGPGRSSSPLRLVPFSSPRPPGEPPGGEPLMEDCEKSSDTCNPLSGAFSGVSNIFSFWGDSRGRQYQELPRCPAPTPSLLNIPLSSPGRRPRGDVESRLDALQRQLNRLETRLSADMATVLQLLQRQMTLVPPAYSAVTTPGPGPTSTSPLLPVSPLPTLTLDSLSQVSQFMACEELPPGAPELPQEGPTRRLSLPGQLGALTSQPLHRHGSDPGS

[3] = (§1) Half life in rat liver microsomes; type: ADME, Microsome; details: liver microsomes
[4] = Permeability across human Caco2 cells; type: ADME, cell-based; details: Caco-2, read-out: Kp
[5] = target: T1, 5-hydroxytryptamine receptor 4 (Homo sapiens, UniProt Q13639); experiment: Intrinsic activity at human 5HT4C receptor expressed at 100 fold physiological-level in HEK293 cells assessed as cAMP accumulation relative to 5HT; type: functional, cell-based
T1 sequence (Q13639 whole entry): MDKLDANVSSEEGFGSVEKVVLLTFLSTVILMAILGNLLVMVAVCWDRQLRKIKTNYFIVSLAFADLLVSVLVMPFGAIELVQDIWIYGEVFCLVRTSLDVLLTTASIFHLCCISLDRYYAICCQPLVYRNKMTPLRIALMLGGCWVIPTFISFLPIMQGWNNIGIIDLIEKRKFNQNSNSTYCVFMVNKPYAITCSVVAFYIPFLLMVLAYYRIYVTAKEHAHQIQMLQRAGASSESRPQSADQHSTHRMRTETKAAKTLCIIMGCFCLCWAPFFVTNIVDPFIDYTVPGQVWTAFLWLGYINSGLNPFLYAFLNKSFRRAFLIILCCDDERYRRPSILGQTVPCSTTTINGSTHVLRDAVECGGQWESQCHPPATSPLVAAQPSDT

[6] = target: T1, 5-hydroxytryptamine receptor 4; experiment: biochemical
Description: Displacement of [3H]GR113808 from human recombinant 5HT4C receptor expressed in HEK293 cells

[7] = target: T1, 5-hydroxytryptamine receptor 4; experiment: Agonist activity at human 5HT4C receptor expressed at 100 fold physiological-level in HEK293 cells assessed as cAMP accumulation; type: functional, cell-based
[8] = target: T2, 5-hydroxytryptamine receptor 1A (Homo sapiens) (UniProt P08908); experiment: Inhibition of 5HT1A receptor at 10 uM
T2 sequence (whole entry): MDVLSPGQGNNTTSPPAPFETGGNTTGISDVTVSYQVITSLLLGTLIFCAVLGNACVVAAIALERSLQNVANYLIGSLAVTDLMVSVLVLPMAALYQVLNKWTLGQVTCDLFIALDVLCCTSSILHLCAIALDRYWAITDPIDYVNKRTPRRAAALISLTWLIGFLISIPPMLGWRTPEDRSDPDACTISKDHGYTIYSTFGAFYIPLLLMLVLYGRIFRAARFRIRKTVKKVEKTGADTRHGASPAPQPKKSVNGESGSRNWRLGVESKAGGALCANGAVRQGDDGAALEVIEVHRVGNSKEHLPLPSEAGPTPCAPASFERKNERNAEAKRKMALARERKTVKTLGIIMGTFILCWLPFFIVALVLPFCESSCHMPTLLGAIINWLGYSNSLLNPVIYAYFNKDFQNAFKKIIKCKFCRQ

[9] = target: 5-hydroxytryptamine receptor 5A (Homo sapiens) (UniProt P47898); experiment: Inhibition of 5HT5A receptor at 10 uM
Chain of 5-hydroxytryptamine receptor 5A (Homo sapiens) (P47898 whole entry): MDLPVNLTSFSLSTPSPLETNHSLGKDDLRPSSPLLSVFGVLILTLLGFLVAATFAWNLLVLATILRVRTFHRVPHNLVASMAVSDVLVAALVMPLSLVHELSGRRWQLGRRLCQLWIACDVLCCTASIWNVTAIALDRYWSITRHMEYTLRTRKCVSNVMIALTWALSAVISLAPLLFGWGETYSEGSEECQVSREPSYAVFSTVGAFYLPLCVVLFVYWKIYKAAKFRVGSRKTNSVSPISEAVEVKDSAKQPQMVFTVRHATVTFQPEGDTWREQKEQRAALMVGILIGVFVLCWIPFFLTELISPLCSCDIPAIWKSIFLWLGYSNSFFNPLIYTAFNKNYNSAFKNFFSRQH

[10] = target: T1, 5-hydroxytryptamine receptor 4; experiment: Agonist activity at human 5HT4C receptor expressed in a cell line expressing receptor at 10 fold physiological-level assessed as cAMP accumulation; type: functional
[11] = target: T1, 5-hydroxytryptamine receptor 4; experiment: 5-HT4C receptor-mediated exchange of GDP for europium labeled GTP (intrinsic activity)
[12] = target: 5-hydroxytryptamine receptor 7 (Homo sapiens) (UniProt P34969); experiment: Inhibition of 5HT7 receptor at 10 uM
Chain of 5-hydroxytryptamine receptor 7 (Homo sapiens) (P34969 whole entry): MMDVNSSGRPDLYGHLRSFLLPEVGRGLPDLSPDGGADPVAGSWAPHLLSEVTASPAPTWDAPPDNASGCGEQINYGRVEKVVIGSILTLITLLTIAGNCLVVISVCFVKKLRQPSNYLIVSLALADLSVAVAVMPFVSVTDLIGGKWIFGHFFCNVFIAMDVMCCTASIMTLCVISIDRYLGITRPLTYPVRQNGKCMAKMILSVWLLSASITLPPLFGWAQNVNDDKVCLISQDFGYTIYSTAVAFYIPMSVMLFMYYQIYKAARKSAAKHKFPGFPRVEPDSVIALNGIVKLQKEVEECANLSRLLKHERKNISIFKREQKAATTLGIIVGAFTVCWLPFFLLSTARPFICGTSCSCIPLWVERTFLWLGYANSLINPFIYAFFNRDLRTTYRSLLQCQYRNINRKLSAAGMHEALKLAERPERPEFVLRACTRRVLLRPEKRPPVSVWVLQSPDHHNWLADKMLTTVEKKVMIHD

[13] = target: 5-hydroxytryptamine receptor 1D (Homo sapiens) (UniProt P28221); experiment: Inhibition of 5HT1D receptor at 10 uM
Chain of 5-hydroxytryptamine receptor 1D (Homo sapiens) (P28221 whole entry): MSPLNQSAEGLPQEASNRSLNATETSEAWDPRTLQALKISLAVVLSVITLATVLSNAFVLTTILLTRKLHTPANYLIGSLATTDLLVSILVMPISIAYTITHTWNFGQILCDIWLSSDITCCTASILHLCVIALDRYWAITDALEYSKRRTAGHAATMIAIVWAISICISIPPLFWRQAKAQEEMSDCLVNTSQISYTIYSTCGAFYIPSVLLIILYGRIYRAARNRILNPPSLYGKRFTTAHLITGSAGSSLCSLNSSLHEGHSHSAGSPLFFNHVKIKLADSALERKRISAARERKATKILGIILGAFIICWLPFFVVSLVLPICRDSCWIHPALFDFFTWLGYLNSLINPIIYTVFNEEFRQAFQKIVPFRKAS

[14] = target: T1, 5-hydroxytryptamine receptor 4; experiment: 5-HT4C receptor-mediated exchange of GDP for europium labeled GTP (pEC50)
[15] = Oral bioavailability in Sprague-Dawley rat at 5 mg/kg; type: ADME, organism-based; details: in vivo
[16] = target: 5-hydroxytryptamine receptor 2A (Homo sapiens) (UniProt P28223); experiment: Inhibition of 5HT2A receptor at 10 uM
Chain of 5-hydroxytryptamine receptor 2A (Homo sapiens) (P28223 whole entry): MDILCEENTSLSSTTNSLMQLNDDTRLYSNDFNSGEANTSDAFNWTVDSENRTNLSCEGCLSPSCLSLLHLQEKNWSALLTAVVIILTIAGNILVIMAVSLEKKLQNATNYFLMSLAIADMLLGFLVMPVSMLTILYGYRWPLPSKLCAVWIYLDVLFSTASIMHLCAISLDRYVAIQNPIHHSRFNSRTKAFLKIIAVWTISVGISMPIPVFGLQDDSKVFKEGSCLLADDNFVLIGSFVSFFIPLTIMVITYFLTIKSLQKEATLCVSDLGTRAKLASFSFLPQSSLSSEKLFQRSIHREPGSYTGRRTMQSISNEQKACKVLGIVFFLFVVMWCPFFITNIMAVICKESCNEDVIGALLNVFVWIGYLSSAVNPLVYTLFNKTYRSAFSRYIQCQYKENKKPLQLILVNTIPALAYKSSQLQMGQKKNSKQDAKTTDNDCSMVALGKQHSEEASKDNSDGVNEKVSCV

[17] = system: Rattus norvegicus; experiment: 5-HT4 receptor-mediated esophageal relaxation in anesthetized rat (following intraduodenal administration) using digital sonomicrometry; type: functional, organism-based; details: Sprague-Dawley
[18] = AUC (0 to t) in Sprague-Dawley rat at 5 mg/kg, po; type: ADME, organism-based; set-up: dose 5 mg/kg, route oral; details: plasma
[19] = system: Cavia porcellus; experiment: Agonist activity at 5HT4 receptor in sc dosed guinea pig assessed as decrease in colonic transit time of carmine red dye after 60 mins relative to vehicle treated control; type: functional, organism-based
[20] = target: T3, 5-hydroxytryptamine receptor 2C (Homo sapiens) (UniProt P28335); experiment: Inhibition of 5HT2C receptor at 10 uM
T3 sequence (whole entry): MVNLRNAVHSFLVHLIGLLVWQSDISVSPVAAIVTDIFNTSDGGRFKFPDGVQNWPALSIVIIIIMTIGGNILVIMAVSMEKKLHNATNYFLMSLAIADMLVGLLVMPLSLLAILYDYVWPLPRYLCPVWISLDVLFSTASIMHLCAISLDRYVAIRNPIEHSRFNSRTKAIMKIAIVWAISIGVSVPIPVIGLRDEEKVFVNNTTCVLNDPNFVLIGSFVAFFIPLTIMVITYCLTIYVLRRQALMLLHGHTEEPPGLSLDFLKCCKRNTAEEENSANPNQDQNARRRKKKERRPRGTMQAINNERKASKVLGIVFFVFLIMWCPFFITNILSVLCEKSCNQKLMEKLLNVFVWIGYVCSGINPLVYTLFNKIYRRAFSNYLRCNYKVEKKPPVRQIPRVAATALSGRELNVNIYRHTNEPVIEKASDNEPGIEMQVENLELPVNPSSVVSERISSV

[21] = Cmax in Sprague-Dawley rat at 5 mg/kg, po; type: ADME, organism-based; set-up: dose 5 mg/kg, route oral; details: in vivo
[22] = system: Rattus norvegicus; experiment: 5-HT4 receptor-mediated esophageal relaxation in anesthetized rat (following i.v. administration) using digital sonomicrometry; type: functional; details: Sprague-Dawley
[23] = target: T4, 5-hydroxytryptamine receptor 3A (Homo sapiens) (UniProt P46098); experiment: Inhibition of 5HT3A receptor at 10 uM
T4 sequence (whole entry): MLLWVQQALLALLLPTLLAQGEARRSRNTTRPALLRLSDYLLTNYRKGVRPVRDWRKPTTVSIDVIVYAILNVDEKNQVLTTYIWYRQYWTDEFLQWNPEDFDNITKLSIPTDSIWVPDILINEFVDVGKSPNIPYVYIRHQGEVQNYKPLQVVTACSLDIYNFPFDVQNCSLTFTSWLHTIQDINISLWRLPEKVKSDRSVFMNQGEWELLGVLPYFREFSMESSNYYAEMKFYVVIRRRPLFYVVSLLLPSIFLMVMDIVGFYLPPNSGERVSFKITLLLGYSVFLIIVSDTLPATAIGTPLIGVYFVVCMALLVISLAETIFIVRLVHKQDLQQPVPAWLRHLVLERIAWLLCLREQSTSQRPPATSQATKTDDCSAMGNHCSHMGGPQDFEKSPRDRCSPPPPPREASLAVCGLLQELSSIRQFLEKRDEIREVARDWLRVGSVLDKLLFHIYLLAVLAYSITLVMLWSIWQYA

[24] = target: 5-hydroxytryptamine receptor 2B (Homo sapiens) (UniProt P41595); experiment: Inhibition of 5HT2B receptor at 10 uM
Chain of 5-hydroxytryptamine receptor 2B (Homo sapiens) (P41595 whole entry): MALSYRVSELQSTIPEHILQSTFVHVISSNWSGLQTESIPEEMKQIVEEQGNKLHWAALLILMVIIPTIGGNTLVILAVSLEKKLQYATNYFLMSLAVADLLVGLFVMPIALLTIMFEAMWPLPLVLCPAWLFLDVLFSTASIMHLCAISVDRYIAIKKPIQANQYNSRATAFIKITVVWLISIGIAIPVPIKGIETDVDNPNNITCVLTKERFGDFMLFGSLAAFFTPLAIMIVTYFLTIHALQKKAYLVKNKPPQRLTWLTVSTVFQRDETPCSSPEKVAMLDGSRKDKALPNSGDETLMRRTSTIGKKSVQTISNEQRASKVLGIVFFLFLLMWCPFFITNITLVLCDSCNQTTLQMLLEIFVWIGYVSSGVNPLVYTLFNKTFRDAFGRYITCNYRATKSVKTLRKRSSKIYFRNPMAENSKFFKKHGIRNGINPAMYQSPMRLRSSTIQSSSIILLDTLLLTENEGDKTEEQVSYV

[25] = target: 5-hydroxytryptamine receptor 6 (Homo sapiens) (UniProt P50406); experiment: Inhibition of 5HT6 receptor at 10 uM
Chain of 5-hydroxytryptamine receptor 6 (Homo sapiens) (P50406 whole entry): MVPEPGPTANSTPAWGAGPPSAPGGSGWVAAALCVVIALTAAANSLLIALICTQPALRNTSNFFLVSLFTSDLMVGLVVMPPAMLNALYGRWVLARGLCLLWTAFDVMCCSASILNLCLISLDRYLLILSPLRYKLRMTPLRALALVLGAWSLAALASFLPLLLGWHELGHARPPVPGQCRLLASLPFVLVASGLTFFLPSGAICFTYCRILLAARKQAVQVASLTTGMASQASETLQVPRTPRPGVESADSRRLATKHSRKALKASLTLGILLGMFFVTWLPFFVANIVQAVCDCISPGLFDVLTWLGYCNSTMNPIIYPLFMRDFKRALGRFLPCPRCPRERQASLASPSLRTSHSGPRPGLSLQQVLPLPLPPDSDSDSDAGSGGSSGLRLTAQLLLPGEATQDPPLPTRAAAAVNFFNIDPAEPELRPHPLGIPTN

[26] = target: 5-hydroxytryptamine receptor 1B (Homo sapiens) (UniProt P28222); experiment: Inhibition of 5HT1B receptor at 10 uM
Chain of 5-hydroxytryptamine receptor 1B (Homo sapiens) (P28222 whole entry): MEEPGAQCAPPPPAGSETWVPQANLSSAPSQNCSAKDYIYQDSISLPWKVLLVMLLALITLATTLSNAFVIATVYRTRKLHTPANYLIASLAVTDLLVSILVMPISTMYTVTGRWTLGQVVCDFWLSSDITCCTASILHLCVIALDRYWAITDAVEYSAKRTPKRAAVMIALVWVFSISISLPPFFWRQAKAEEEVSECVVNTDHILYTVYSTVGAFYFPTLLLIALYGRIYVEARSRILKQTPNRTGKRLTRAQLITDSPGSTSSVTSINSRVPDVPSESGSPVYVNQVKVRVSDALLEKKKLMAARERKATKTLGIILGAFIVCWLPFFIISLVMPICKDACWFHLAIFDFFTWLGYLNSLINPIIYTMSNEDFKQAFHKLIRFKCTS

[27] = Half life in Sprague-Dawley rat at 5 mg/kg, po; type: ADME, organism-based; set-up: dose 5 mg/kg, route oral; details: in vivo
[28] = target: T1, 5-hydroxytryptamine receptor 4; experiment: Intrinsic activity at human 5HT4C receptor expressed in a cell line expressing receptor at 10 fold physiological-level assessed as cAMP accumulation relative to 5HT; type: functional
[29] = target: 5-hydroxytryptamine receptor 4 (Cavia porcellus, UniProt O70528); experiment: Agonist activity at 5HT4 receptor in guinea pig colon assessed as longitudinal muscle plexus contraction
Chain of 5-hydroxytryptamine receptor 4 (Cavia porcellus, UniProt O70528) (O70528 whole entry): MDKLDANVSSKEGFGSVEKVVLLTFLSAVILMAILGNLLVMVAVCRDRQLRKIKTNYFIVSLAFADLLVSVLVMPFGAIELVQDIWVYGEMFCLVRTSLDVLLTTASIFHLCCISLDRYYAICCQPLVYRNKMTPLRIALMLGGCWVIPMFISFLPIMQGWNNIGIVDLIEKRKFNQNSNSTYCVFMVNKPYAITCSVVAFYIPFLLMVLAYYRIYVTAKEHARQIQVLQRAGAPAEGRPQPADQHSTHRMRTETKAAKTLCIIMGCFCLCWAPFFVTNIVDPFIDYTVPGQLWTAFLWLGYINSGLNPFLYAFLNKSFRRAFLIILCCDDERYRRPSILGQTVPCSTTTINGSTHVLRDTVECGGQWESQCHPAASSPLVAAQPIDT

[30] = system: Liver microsomes; experiment: as §1; type: ADME, Microsome; details: microsomes

In the case of `CC(C)n1nc(C(=O)N[C@H]2C[C@H]3CC[C@@H](C2)N3)c2ccccc21`, the Ratio Ki [1] is reported as < 1.

For `CC(C)n1nc(C(=O)N[C@H]2C[C@H]3CC[C@@H](C2)N3C[C@H](O)CN2CCN(S(C)(=O)=O)CC2)c2ccccc21`, the inhibition at 3 µM [2] was 7%, the half-life [3] was > 1.5 h and the Papp [4] was 18 ×10⁻⁶ cm/s. For the same compound, the Intrinsic activity [5] was 94%, the Ratio Ki [1] was 240 and the Ki [6] was 7.94 nM. It also gave an EC50 [7] of 0.794 nM.

For `CC(C)n1nc(C(=O)N[C@H]2C[C@H]3CC[C@@H](C2)N3CC(O)CN2CCC(CNS(C)(=O)=O)CC2)c2ccccc21` (stereo not given in full), the half-life [3] was > 1.5 h, the Papp [4] was 1 ×10⁻⁶ cm/s and the Intrinsic activity [5] was 93%. The Ratio Ki [1] was 19000, the Ki [6] was 2.51 nM and the EC50 [7] was 0.631 nM.

With `CC(C)n1nc(C(=O)N[C@H]2C[C@H]3CC[C@@H](C2)N3CCCCCCN2CCN(S(C)(=O)=O)CC2)c2ccccc21` the Intrinsic activity [5] was 75%, the Ratio Ki [1] was 3.6 and the Ki [6] was 2.51 nM. The EC50 [7] was 12.6 nM.

With `CC(C)n1nc(C(=O)N[C@H]2C[C@H]3CC[C@@H](C2)N3CC(O)CN2CCCCC2)c2ccccc21` (stereo not given in full) the inhibition at 3 µM [2] was 62%, the half-life [3] was > 1.5 h and the Papp [4] was 30 ×10⁻⁶ cm/s. For the same compound, the Intrinsic activity [5] was 85%, the Ratio Ki [1] was 13000 and the Ki [6] was 2 nM. It also gave an EC50 [7] of 2 nM.

With `CC(=O)N1CCN(CCN2[C@@H]3CC[C@H]2C[C@@H](NC(=O)c2nn(C(C)C)c4ccccc24)C3)CC1` the inhibition [8] was < 50%, the inhibition [9] was < 50% and the EC50 [10] was 10 nM. For the same compound, the Intrinsic activity [11] was 57%, the inhibition at 3 µM [2] was 9% and the inhibition [12] was < 50%. For the same compound, the inhibition [13] was < 50%, the EC50 [14] was 6.31 nM and the bioavailability [15] was > 100%. The half-life [3] was > 1.5 h, the Papp [4] was 31 ×10⁻⁶ cm/s and the inhibition [16] was < 50%. For the same compound, the Activity [17] was “Dose-dependent effect”, the AUC(0-t) [18] was 730 ng·h/mL and the Intrinsic activity [5] was 83%. The Activity [19] was “Active”, the inhibition [20] was < 50% and the Cmax [21] was 254 ng/mL. The Activity [22] was “Dose-dependent effect”, the ED50 ([22]; iv) was 0.0378 mg/kg and the inhibition [23] was < 50%. The inhibition [24] was < 50%, the Ratio Ki [1] was 980 and the inhibition [25] was < 50%. For the same compound, the inhibition [26] was < 50%, the half-life [27] was 3.2 h and the Intrinsic activity [28] was 53%. The Ki [6] was 10 nM, the EC50 [7] was 2.51 nM and the EC50 [29] was 10 nM.

`COc1cc(N)c(Cl)cc1C(=O)N[C@H]1CCN(CCCOc2ccc(F)cc2)C[C@H]1OC` (relative stereo) [REL-CISAPRIDE] showed a t1/2 [30] of 0.783 h and an Intrinsic activity [5] of 117%.

In the case of `CC(C)N(C)CC(O)CN1[C@@H]2CC[C@H]1C[C@@H](NC(=O)c1nn(C(C)C)c3ccccc13)C2` (stereo not given in full), the inhibition at 3 µM [2] is reported as 29%, the half-life [3] is reported as > 1.5 h and the Papp [4] is reported as 26 ×10⁻⁶ cm/s. It also gave an Intrinsic activity [5] of 78%, a Ratio Ki [1] of 6300 and a Ki [6] of 3.98 nM. The EC50 [7] was 5.01 nM.

In the case of `CC(C)n1nc(C(=O)N[C@H]2C[C@H]3CC[C@@H](C2)N3C[C@@H](O)CN2CCN(S(C)(=O)=O)CC2)c2ccccc21`, the inhibition at 3 µM [2] is reported as 7%, the bioavailability [15] is reported as 36% and the half-life [3] is reported as > 1.5 h. It also gave a Papp [4] of 19 ×10⁻⁶ cm/s, an AUC(0-t) [18] of 240 ng·h/mL and an Intrinsic activity [5] of 86%. For the same compound, the Cmax [21] was 35 ng/mL, the Ratio Ki [1] was 23000 and the half-life [27] was 7.4 h. For the same compound, the Ki [6] was 2.51 nM and the EC50 [7] was 0.398 nM.
